Experimental data as given in patent US20030229145A1, “Pain treatment methods and compositions” (GRUENENTHAL GMBH, priority 2000, published 2003).
Where a name gives a salt, the structure may show the parent alone. Read-outs that look alike come from different tables or passages of the source.

Experiments:
Sprague Dawley rats = assay: Mechanical hyperalgesia after paw incision on rats (paw incision model); assay type: in vivo
Protocol: In this model, the pain due to a wound in the vicinity of an incision on the plantar side of a hind paw of the rat is studied as a model of postoperative pain (Brennan, T. J., Vandermeulen, E. P., Gebhart, G. F., Pain (1996) 493-501). For this purpose, the retraction latency after point mechanical stimulation with an electronic von Frey filament is determined. After the paw incision, a mechanical hyperalgesia develops and remains stable over several days.
Male Sprague Dawley rats (body weight 200-300 g) are used. […]
By using an electronic von Frey filament (Digital Transducer Indicator Model 1601C, IITC Inc.), the retraction threshold of the paw, expressed in grams, after point mechanical stimulation is determined. For this purpose, the retraction threshold is measured five times per measurement point at an interval of 30 sec, and the individual median is determined, with the aid of which the average of the animal population is calculated. […]
To study the primary hyperalgesia, the retraction threshold on the ipsilateral paw is determined in the immediate vicinity of the incision, and also in the same position on the contralateral paw. […]
The Mann-Whitney U test is used for the significance calculation (p<0.05). For dose-dependent effects, the ED50 value is determined with the aid of a regression analysis.

NMRI mice = assay: Phenylquinone-induced writhing test on mice; assay type: in vivo; conditions: 10 min; mouse, i.v., phenylquinone i.p. 10 minutes after substance
Protocol: The anti-nociceptive efficacy of the compounds according to the invention was studied on mice with the phenylquinone-induced writhing test, modified after I. C. Hendershot, J. Forsaith, J. Pharmacol. Exp. Ther. 125, 237-240 (1959). Male NMRI mice with a weight of from 25-30 g were used for this purpose. 10 minutes after intravenous administration of a compound according to the invention, groups of 10 animals per substance dose were intraperitoneally given 0.3 ml/mouse of a 0.02% strength aqueous solution of phenylquinone (phenylbenzoquinone, Sigma, Deisenhofen; production of the solution with the addition of 5% ethanol and storage in a water bath at 45° C.). The animals were placed individually in observation cages. The number of pain-induced stretching movements (so-called writhing reactions =straightening of the body with stretching of the hind extremities) were counted by means of a push-button counter 5-20 minutes after the phenylquinone administration. Animals which received physiological saline solution i.v. and phenylquinone […]. were also included as a control.
All the substances were tested in the standard dose of 10 mg/kg. The percentage inhibition (% inhibition) of the writhing reactions by a substance was calculated according to the following formula:
% inhibition=100−[WR of treated animals/ WR of control×100]

[1] = system: AMPA response of spinal neurons in the dorsal horn; assay: Microiontophoresis on anaesthetized rats (evoked potentials of dorsal horn cells after application of excitatory amino acids); assay type: in vivo; conditions: for ED50: Rattus norvegicus, Neuron, read-out: ED50 of inhibition of the AMPA response; for Inhibition of the AMPA response of spinal neurons (in words): microiontophoretic NMDA, kainate
Protocol: (derivation of evoked ascending potentials of individual cells in the dorsal horn of the spinal cord of anaesthetized rats after microiontophoretic application of excitatory amino acids (EAAs))
Male rats (Sprague Dawley, Janvier) with a body weight of from 280 g to 350 g were used. To induce the anaesthesia, inhalation anaesthetization was carried out with 4.0-5.0% halothane in a mixture of 200 ml/min oxygen (O2) and 400 ml/min dinitrogen monoxide (N2O) in a plexiglas anaesthetization box. During the preparatory phase, the halothane concentration was reduced to 1.0-1.5%. For the rest of the experiment, the inhalation anaesthetization was then replaced by bolus application of 40 mg/kg of chloralose in 3.5% Haemaccel solution (i.v.) and maintained by continuous infusion of 20 mg/kg/2.0 ml/h of chloralose. After the induction anaesthetization (4.0-5.0% halothane, see above), the tracheal tube was fitted through a syringe cylinder (20 ml Omnifix, Luer) shortened to about 20 mm, which was placed over the mouth and nose of the animals, with a 2.5% halothane concentration. The halothane concentration was then reduced to about 1.5%. Exhaled air was extracted through a closed system. For the application of test substances, a PE-20 (1.09*0.38mm) catheter was fitted into the dorsal branch of the left V. jugularis. A PE-50 tube (0.9569 mm*0.58 mm) was inserted into the left arteria carotis as a catheter for continuously monitoring the blood pressure. For the laminectomy, the animals were then placed in the prone position. An incision was made along the midline from the nape of the neck to the pelvic region. A blood-pressure drop frequently observed following this was treated by local application of lidocaine HCl with adrenaline (xylocitin 2% with adrenaline 0.001%, Jenapharm). The superficial tissue layers on both sides of the spinal column were removed in the vicinity of the vertebral bodies from sacral 2 (S2) to thoracic 8 (Th8). The musculature associated with the vertebral bodies was also removed by careful scraping with a scalpel. The actual laminectomy begins at vertebral body L2 (lumbar 2), after removing the processus spinalis from vertebra L3, and extends into the TH8 rostral region as far as where the large dorsal veins branch off laterally and caudally. The bones of the individual vertebral bodies were carefully removed in small stages by means of fine rongeurs. The musculature around TH8/9 and L1/S2 was also removed, so that immobilization clamps could be fitted later. Exposed tissue was protected against drying by applied 0.9% strength NaCI solution or thin PVC strips. […] In addition to the blood pressure, the local blood circulation was visually assessed, a pink skin color of the paws indicating normal microcirculation. […]

AMPA receptor = assay: Affinity for the AMPA receptor; assay type: binding

SMILES	% MPE, retraction threshold of the ipsilateral paw (Sprague Dawley rats; 464 mg/kg i.p.)	ED50 (NMRI mice)	ED50 ([1]; anaesthetized rats, spinal neurons in the dorsal horn)	Inhibition of the AMPA response of spinal neurons (in words) ([1]; anaesthetized rats)	Affinity for the AMPA receptor (in words) (AMPA receptor)	ED50 [1]	% MPE, retraction threshold of the ipsilateral paw (Sprague Dawley rats; 100 mg/kg)
CCCC(CC)C(N)C(=O)O.Cl (racemic) [Compound 7, rac-amino-3-ethyl-hexanoic acid hydrochloride as a 1:1 D/L mixture]	30% MPE (464 mg/kg i.p.)						
CCCCCC(C)C(N)C(=O)O (racemic) [Compound 2, rac-2-amino-3-methyl-octanoic acid hydrochloride as a 1:1 D/L mixture]		28 mg/kg					
CCCC(CC)C(N)C(=O)[O-].[Na+] (racemic)			60 mg/kg	selective inhibition of the AMPA response	without having any AMPA affinity		
NCC1(CC(=O)O)CCCCC1 [Gabapentin]		38 mg/kg		dose-dependent and selective inhibition of the AMPA response	no affinity for the AMPA receptor	106 mg/kg	66% MPE (100 mg/kg)
